Test results published in US10195181B2, “Carboxamide derivatives” (Novartis AG, priority 2014, dated 2019).
pIC50: −log10 of the molar value.

Molecular target: Smurf-1 (Homo sapiens (Human), UniProt Q9HCE7)
Test: HECT E3 ligase autoubiquitinylation TR-FRET assay (Smurf-1)
Assay type: biochemical
Description: To determine the HECT E3 ligase selectivity of the compounds, a panel of biochemical HECT E3 ligase autoubiquitinylation assays was employed (Smurf-1, Smurf-2, WWP1, WWP2, ITCH, Nedd4, Nedd4L and E6AP). The conjugation of ubiquitin to a protein substrate is a multistep process. In an initial ATP-requiring step, a thioester bond is formed between the carboxyl terminus of ubiquitin and an internal cystein residue of the ubiquitin-activating enzyme (E1). Activated ubiquitin is then transferred to a specific cystein residue of an ubiquitin-conjugating enzyme (E2). E2s donate ubiquitin to a HECT E3 ligase (E3) from which it is transferred to the substrate protein. HECT E3 ligases can auto-ubiquitinylate. This event is detected in the TR-FRET (Time-Resolved Fluorescence Resonance Energy Transfer) assay used in this panel. […] When these two fluorophores are brought together by a biomolecular interaction (in this case ubiquitinylation of the E3 ligase), a portion of the energy captured by the Cryptate during excitation is released through fluorescence emission at 620 nm, while the remaining energy is transferred to XL665. This energy is then released by XL665 as specific fluorescence at 665 nm. […]
After an incubation time of 45 min in the dark, the plates are transferred into the Pherastar fluorescence reader to measure the TR-FRET signal.

Smurf-1, sequence (Q9HCE7 whole entry): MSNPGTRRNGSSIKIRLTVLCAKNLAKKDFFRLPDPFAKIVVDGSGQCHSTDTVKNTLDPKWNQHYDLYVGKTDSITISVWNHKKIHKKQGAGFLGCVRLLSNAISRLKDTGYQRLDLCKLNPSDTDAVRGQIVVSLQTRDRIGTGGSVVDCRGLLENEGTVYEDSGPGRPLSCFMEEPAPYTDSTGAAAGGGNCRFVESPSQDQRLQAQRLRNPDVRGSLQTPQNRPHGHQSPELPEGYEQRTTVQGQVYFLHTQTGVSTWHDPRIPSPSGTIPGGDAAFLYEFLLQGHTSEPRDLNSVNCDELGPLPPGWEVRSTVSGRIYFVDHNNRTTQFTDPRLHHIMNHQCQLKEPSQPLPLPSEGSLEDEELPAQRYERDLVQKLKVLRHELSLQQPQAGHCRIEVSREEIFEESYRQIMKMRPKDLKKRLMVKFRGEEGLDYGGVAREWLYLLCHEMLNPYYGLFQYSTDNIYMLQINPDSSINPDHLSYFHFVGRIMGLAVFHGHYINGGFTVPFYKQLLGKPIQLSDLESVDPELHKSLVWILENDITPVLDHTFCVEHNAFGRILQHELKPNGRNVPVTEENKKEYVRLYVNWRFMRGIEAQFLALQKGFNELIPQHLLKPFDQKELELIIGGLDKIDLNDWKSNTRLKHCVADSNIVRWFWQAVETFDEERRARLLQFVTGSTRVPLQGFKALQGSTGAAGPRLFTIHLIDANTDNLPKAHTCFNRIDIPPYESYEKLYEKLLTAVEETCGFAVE

- pIC50: 6.01
SMILES: Cc1c(C(=O)Nc2c(C)n(C)n(C(C)C)c2=O)noc1[C@@H]1CCC[C@H](C(C)(C)C)O1 (mixture of isomers) [Example 17, 5-((2R,6S)-6-(tert-butyl)tetrahydro-2H-pyran-2-yl)-N-(2-isopropyl-1,5-dimethyl-3-oxo-2,3-dihydro-1H-pyrazol-4-yl)-4-methylisoxazole-3-carboxamide and 5-((2S,6R)-6-(tert-butyl)tetrahydro-2H-pyran-2-yl)-N-(2-isopropyl-1,5-dimethyl-3-oxo-2,3-dihydro-1H-pyrazol-4-yl)-4-methylisoxazole-3-carboxamide]
